# Reference: US8173148B2, “Stabilized polymeric delivery system comprising a water-insoluble polymer and an organic liquid” (priority 2004, dated 2012)
# How the values were obtained:
# Format in all cases: physicochemical
# [1] = Precipitation / formulation studies of GHRP-1/ATRIGEL formulations (Example 9); conditions: bulk GHRP-1 citrate solution, time needed for commercial manufacturing
# Experimental: This formulation was identified as AL3922.02. […] Consequently, a fourth formulation (AL3922.04) was developed.
# Table 1 summarizes the precipitation studies that were conducted for each formulation. The acronyms are identified as follows: GHRP-1 is a known […] mimicking growth hormone releasing peptide; DL2A is poly (DL) lactide-glycolide (75/25) having a terminal carboxyl group and an average molecular weight of about 13 kDa and an inherent viscosity of about 0.17 dL/g; NMP is N-methylpyrrolidone.
# [2] = Degradation of PLGH by octreotide acetate in NMP, average molecular weight by GPC (Example 4); conditions: ambient temperature, 2 hours
# Experimental: A solution of 34 wt % of 50/50 carboxyl terminated polylactide glycolide (PLGH at a 1:1 ratio of lactide to glycolide) in N-methylpyrrolidone (NMP) was prepared and divided into several aliquots. To a 950 mg aliquot was added 57.01 mg of octreotide acetate (OA) to provide a solution of 5.66 wt % octreotide acetate in a 34 wt % solution of PLGH in NMP. Upon standing at ambient temperature for 2 hours, the aliquot with OA and a control aliquot containing only PLGH and NMP were analyzed for average molecular weight of the PLGH by GPC analysis. The retention times were correlated against predetermined molecular weight standards of polylactide-glycolide which had been calibrated by GC-mass spectroscopy.
# [3] = Effect of differing octreotide complexes on decomposition of PLGH in NMP, GPC (Example 7); conditions: 35 wt % 50/50 PLGH in NMP, over 25 days, FIG. 3
# Experimental: Aliquots of a solution of 50/50 polylactide glycolide having an inherent viscosity of 0.57 dL/g and an average molecular weight of 45,000 were prepared so as to provide 35 wt % aliquots of the PLGH in N-methylpyrrolidone (NMP). To individual aliquots was added one of the following octreotide free base (OB)—complexes: OB-citrate; OB mesylate; OB-acetate; OB-Glucuronate. The OB-citrate complex was studied at several ratios: excess OB, 1:3 exchange, 1:1 exchange and citrate to pH 7. The average molecular weight of the PLGH in the solution was periodically determined over a period of 25 days by GPC analysis using pre-calibrated polylactide-glycolide standards for retention times. The following graph presents the results. […] The data determined by this experiment are presented graphically in FIG. 3.
Molecule,drug precipitation / remaining in solution (Comments) [1],"average molecular weight of the PLGH ([2]; 5.66 wt % octreotide acetate in 34 wt % 50/50 PLGH in NMP, control aliquot 37,628 daltons)",degradation of the PLGH molecular weight ([2]; 34 wt % PLGH in NMP),degradation of PLGH average molecular weight by octreotide complexes [3]
GHRP-1: growth hormone releasing peptide; seven amino acid peptide containing one lysine and one tryptophan (ATRIGEL),tended to precipitate out of the solution over a couple of hours,–,–,–
"C[C@@H](O)[C@@H]1NC(=O)[C@H](CCCCN)NC(=O)[C@@H](Cc2c[nH]c3ccccc23)NC(=O)[C@H](Cc2ccccc2)NC(=O)[C@@H](NC(=O)[C@H](N)Cc2ccccc2)CSSC[C@@H](C(=O)N[C@H](CO)[C@@H](C)O)NC1=O (relative stereo) [octreotide acetate, L-cysteinamide, D-phenylalanyl-L-cysteinyl-L-phenylalanyl-D-tryptophyl-L-lysyl-L-threonyl-N-[2-hydroxy-1-(hydroxymethyl)propyl]-, cyclic (2→7)-disulfide; [R—(R*,R*)]]",–,"20,173 daltons",significant degradation,immediate dramatic degradation
